Test results as given in ChEMBL document CHEMBL1152254, “Synthesis, biological evaluation, and molecular modeling investigation of chiral 2-(4-chloro-phenoxy)-3-phenyl-propanoic acid derivatives with PPARalpha and PPARgamma agonist activity” (Bioorg Med Chem, 2008).
The source made the active and inactive calls. The rule behind the calls is not given here.

Legend:
Type in all cases: cell-based
[1] = target: T1, Peroxisome proliferator-activated receptor alpha (Homo sapiens, UniProt Q07869); test: (§1) Agonist activity at human PPARalpha ligand binding domain expressed in human HepG2 cells co-transfected with Gal4 by luciferase reporter gene assay
T1 sequence (Q07869 whole entry): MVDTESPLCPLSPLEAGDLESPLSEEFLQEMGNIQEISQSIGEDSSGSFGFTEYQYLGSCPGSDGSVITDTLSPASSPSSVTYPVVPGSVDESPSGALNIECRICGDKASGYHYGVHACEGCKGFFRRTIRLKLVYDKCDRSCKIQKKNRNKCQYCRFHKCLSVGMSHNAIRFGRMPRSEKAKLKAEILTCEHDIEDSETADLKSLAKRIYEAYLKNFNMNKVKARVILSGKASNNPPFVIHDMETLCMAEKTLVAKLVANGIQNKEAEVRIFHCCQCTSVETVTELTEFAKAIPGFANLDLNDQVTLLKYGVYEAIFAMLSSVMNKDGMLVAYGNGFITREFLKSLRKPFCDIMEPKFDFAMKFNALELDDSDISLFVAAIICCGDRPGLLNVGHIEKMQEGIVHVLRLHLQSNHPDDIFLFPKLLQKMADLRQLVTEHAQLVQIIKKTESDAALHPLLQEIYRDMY

[2] = target: T2, Peroxisome proliferator-activated receptor gamma (Homo sapiens, UniProt P37231); test: (§2) Agonist activity at human PPARgamma ligand binding domain expressed in human HepG2 cells co-transfected with Gal4 by luciferase reporter gene assay
T2 sequence (P37231 whole entry): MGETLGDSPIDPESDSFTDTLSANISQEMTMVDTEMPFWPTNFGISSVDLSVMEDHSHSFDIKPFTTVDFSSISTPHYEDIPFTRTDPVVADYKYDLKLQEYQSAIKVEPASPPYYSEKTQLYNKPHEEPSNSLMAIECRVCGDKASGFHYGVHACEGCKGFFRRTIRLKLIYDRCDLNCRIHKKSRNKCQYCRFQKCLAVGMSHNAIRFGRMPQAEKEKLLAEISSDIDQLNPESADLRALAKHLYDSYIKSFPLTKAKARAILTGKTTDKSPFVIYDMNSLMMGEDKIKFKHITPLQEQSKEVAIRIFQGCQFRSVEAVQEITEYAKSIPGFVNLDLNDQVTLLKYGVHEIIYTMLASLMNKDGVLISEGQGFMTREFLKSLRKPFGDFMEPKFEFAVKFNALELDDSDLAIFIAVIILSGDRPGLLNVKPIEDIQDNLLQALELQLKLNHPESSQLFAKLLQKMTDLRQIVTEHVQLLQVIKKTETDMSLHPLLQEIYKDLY

[3] = target: T3, Peroxisome proliferator-activated receptor alpha (Homo sapiens) (UniProt Q07869); test: Agonist activity at human PPARalpha ligand binding domain expressed in human HepG2 cells co-transfected with Gal4 by luciferase reporter gene assay relative to Wy-14,643
T3 sequence (whole entry): T1 sequence (Q07869 whole entry)

[4] = target: T3, Peroxisome proliferator-activated receptor alpha (Homo sapiens); test: as §1
[5] = target: T4, Peroxisome proliferator-activated receptor gamma (Homo sapiens) (UniProt P37231); test: as §2
T4 sequence (whole entry): T2 sequence (P37231 whole entry)

Row | Compound | EC50 [1] | EC50 [2] | Efficacy [3] | Activity [4] | Activity [5] | Activity [3]
1 | O=C(O)[C@H](Cc1ccc(Oc2ccccc2)cc1)Oc1ccc(Cl)cc1 | 27 nM | 870 nM | 68% |  |  | 
2 | O=C(O)[C@H](Cc1ccc(-c2cccs2)cc1)Oc1ccc(Cl)cc1 | 65 nM | 590 nM | 71% |  |  | 
3 | O=C(O)[C@@H](Cc1ccc(Oc2ccccc2)cc1)Oc1ccc(Cl)cc1 | 700 nM | 11300 nM | 15% |  |  | 
4 | CCCc1cc(Cl)ccc1OC(Cc1ccccc1)C(=O)O (stereo not drawn) |  |  | 18% |  |  | 
5 | CN(CCOc1ccc(CC2SC(=O)NC2=O)cc1)c1ccccn1 (stereo not drawn) |  |  | 100% |  | inactive | 
6 | Cc1cccc(Nc2cc(Cl)nc(SCC(=O)O)n2)c1C |  |  |  | inactive |  | inactive
7 | O=C(O)C(Cc1ccc(Oc2ccccc2)cc1)Oc1ccc(Cl)cc1 (racemic) | 64 nM | 1060 nM | 58% |  |  | 
8 | O=C(O)C(Cc1ccccc1)Oc1ccc(Cl)cc1Br (racemic) | 1650 nM |  | 41% |  |  | 
9 | O=C(O)C(Cc1ccccc1)Oc1ccc(Cl)cc1Cl (racemic) | 2120 nM |  | 50% |  |  | 
10 | CCCCCCc1cc(Cl)ccc1OC(Cc1ccccc1)C(=O)O (racemic) |  |  |  | inactive | inactive | inactive
11 | Cc1cc(Cl)cc(C)c1OC(Cc1ccccc1)C(=O)O (racemic) |  |  |  | inactive | inactive | inactive
12 | Cc1cc(Cl)ccc1OC(Cc1ccccc1)C(=O)O (racemic) |  |  | 34% |  |  | 
13 | O=C(O)C(Cc1ccccc1)Oc1c(Cl)cc(Cl)cc1Cl (racemic) |  |  |  | inactive | inactive | inactive
14 | O=C(O)C(Cc1ccccc1)Oc1ccc(Cl)cc1-c1ccccc1 (racemic) |  |  |  | inactive | inactive | inactive

Other lines, results leading:

Row | EC50 [1] | EC50 [2] | Efficacy [3] | Activity [4] | Activity [5] | Activity [3] | Compound
15 | 14500 nM | 7940 nM | 48% |  |  |  | O=C(O)[C@H](Cc1ccccc1)Oc1ccc(Cl)cc1
16 | 350 nM | 1390 nM | 39% |  |  |  | CCCc1ccc(CC(Oc2ccc(Cl)cc2)C(=O)O)cc1 (stereo not drawn)
17 | 450 nM |  | 56% |  |  |  | CCCCCCc1ccc(CC(Oc2ccc(Cl)cc2)C(=O)O)cc1 (stereo not drawn)
18 | 420 nM | 3650 nM | 69% |  |  |  | O=C(O)[C@H](Cc1ccc(C(F)(F)F)cc1)Oc1ccc(Cl)cc1
19 | 49 nM | 1120 nM | 70% |  |  |  | O=C(O)[C@H](Cc1ccc(-c2ccccc2)cc1)Oc1ccc(Cl)cc1
20 | 1430 nM | 3680 nM | 43% |  |  |  | CCCc1ccccc1CC(Oc1ccc(Cl)cc1)C(=O)O (stereo not drawn)
21 |  |  |  | inactive | inactive | inactive | CCCCCCc1ccccc1CC(Oc1ccc(Cl)cc1)C(=O)O (stereo not drawn)
22 |  |  |  | inactive | inactive | inactive | O=C(O)C(Cc1ccccc1-c1ccccc1)Oc1ccc(Cl)cc1 (stereo not drawn)
23 | 9250 nM | 8540 nM | 50% |  |  |  | Cc1ccccc1CC(Oc1ccc(Cl)cc1)C(=O)O (racemic)
24 | 2810 nM | 4360 nM | 53% |  |  |  | Cc1ccc(CC(Oc2ccc(Cl)cc2)C(=O)O)cc1 (racemic)
25 | 240 nM | 3060 nM | 57% |  |  |  | O=C(O)C(Cc1cccc(Oc2ccccc2)c1)Oc1ccc(Cl)cc1 (racemic)
26 | 2230 nM | 3160 nM | 49% |  |  |  | O=C(O)C(Cc1ccc(Cl)cc1)Oc1ccc(Cl)cc1 (racemic)
27 | 1140 nM |  | 40% |  | inactive |  | O=C(O)C(Cc1ccccc1Oc1ccccc1)Oc1ccc(Cl)cc1 (racemic)
28 | 2490 nM | 4030 nM | 43% |  |  |  | O=C(O)C(Cc1ccccc1C(F)(F)F)Oc1ccc(Cl)cc1 (racemic)
29 | 2180 nM | 2230 nM | 44% |  |  |  | O=C(O)C(Cc1ccccc1Cl)Oc1ccc(Cl)cc1 (racemic)
30 | 4490 nM | 2550 nM | 27% |  |  |  | O=C(O)C(Cc1ccccc1)Oc1ccc(Cl)c(Cl)c1 (racemic)
31 | 2250 nM | 2480 nM | 57% |  |  |  | O=C(O)C(Cc1ccccc1Br)Oc1ccc(Cl)cc1 (racemic)
32 | 1100 nM | 2070 nM | 46% |  |  |  | O=C(O)C(Cc1ccc(Br)cc1)Oc1ccc(Cl)cc1 (racemic)
33 |  |  |  | inactive | inactive | inactive | Cc1cccc(C)c1CC(Oc1ccc(Cl)cc1)C(=O)O (racemic)
34 |  |  |  | inactive | inactive | inactive | O=C(O)C(Cc1c(Cl)cccc1Cl)Oc1ccc(Cl)cc1 (racemic)
